Measurements published in patent publication US20130317056A1, “NEURONAL NICOTINIC AGONISTS AND METHODS OF CORRELATING COMT SNPS” (ABBVIE INC., priority 2012, published 2013).

Experiments:
Assay type in all cases: in vivo, human
[1] = system: clinically stable subjects with schizophrenia; experiment: UCSD Performance-Based Skills Assessment-2 (UPSA-2), Clinical Study A
Text: (§1) A Phase 2a proof-of-concept (POC) study in clinically stable subjects with schizophrenia who were clinically stable and received stable doses of atypical antipsychotic therapy. The study was a Phase 2, multi-center, randomized, double-blind, placebo-controlled, parallel group study designed to evaluate the safety and efficacy of doses of (4s)-4-(5-phenyl-1,3,4-thiadiazol-2-yloxy)-1-azatricyclo[3.3.1.1^3,7]decane (Compound A) in clinically stable male and female subjects (ages 20 to 55, inclusive) with a Diagnostic and Statistical Manual of Mental Disorders—Fourth Edition, Text Revision (DSM-IV-TR) diagnosis of schizophrenia. Psychiatric diagnoses were confirmed using the Mini-International Neuropsychiatric Interview (MINI) version 6.0.0. The criteria for clinical stability was determined by a combination of retrospective data (over the 4 months prior to the start of Screening, which will be supported by clinical records, patient, identified responsible contact person, and physician interviews), and prospective data assessed during the Prospective Stabilization Period of 28 to 42 days duration.
The study was a Phase 2, multi-center, randomized, double-blind, placebo-controlled, parallel group study designed to evaluate the safety and efficacy of doses of (4s)-4-(5-phenyl-1,3,4-thiadiazol-2-yloxy)-1-azatricyclo[3.3.1.1^3,7]decane, which is also recognized as Compound A, in treating cognitive deficits in subjects with schizophrenia who were clinically stable and receiving one or two atypical antipsychotic medications. Study drug was administered orally.
(§2) The study consisted of a screening period of at least 28 and up to 42 days, a 84-day outpatient treatment period, a 14-day post-treatment period, and a post-treatment follow-up period. The screening period consisted of three visits: Screening Visit 1, Screening Visit 2, and Day −1. Upon completion of Day −1 procedures, eligible subjects were randomized through an Interactive Voice Response/Interactive Web-Based (IVR/IWB) system. Subjects were randomized in an equal ratio to one of three treatment groups (placebo, 10 mg Compound A, or 25 mg Compound A).
(§3) The primary endpoint was the MCCB composite score, and the primary endpoint analysis was the change on the MCCB composite score from baseline to endpoint versus placebo. Other secondary measures included the MCCB domains, the NSA-16, the CANTAB cognition battery (measured at different time points from the MCCB), and the UPSA-2. The Positive and Negative Syndrome Scale (PANSS) was included to document stability in schizophrenia symptomatology.
The UCSD Performance-Based Skills Assessment-2 (UPSA-2) is a role-play test designed for subjects with schizophrenia to evaluate cognitive functional capacity in six selected domains of basic living skills. These areas include Organization/Planning, Financial Skills, Communication, Transportation, Household Management, and Medication Management. […] Scores were obtained for each subtest, and the total score was the sum of these subtests. […] The UPSA-2 required an average of 30 minutes to administer. The UPSA-2 was administered in on Days 14, 28, 56, 84 and 98.

[2] = system: clinically stable subjects with schizophrenia; experiment: Disposition of subjects and tolerability, Clinical Study A
Text: as §1, §2
Subjects completed 2 visits during the screening period. Study site personnel contacted each subject by telephone on Day 21, 35, and 70 of the 84-day treatment period to discuss study drug compliance, antipsychotic medication compliance, concomitant medication use, substance use, and any adverse events.
A total of 207 subjects were randomized.

[3] = system: subjects with schizophrenia who were current smokers; experiment: MCCB composite score in current smokers by COMT allele type, Clinical Study A; details: for MCCB Change from Baseline to Final Mean(SD) / MCCB Between-group Difference (Pooled SD) / MCCB Effect Size (Raw mean): current smokers
Protocol: Analysis of the data by cigarette smoking status (current smoker or current nonsmoker) indicated a significant […] interaction (p=0.015).
A blood sample for genotyping was collected from each subject who consented. Genomic DNA was isolated from whole blood using the FlexiGene DNA AGF3000 kit (Qiagen, Valencia, Calif.), on an AutogenFlex 3000 (AutoGen, Holliston, Mass.). Genotypes were determined using the Pyrosequencing detection method (USA—Qiagen, Inc., Valencia, Calif.). Individuals performing the genotyping were blinded to clinical trial data. The significance of the minor allele against the major allele is shown in column marked “Treatment genotype p-value” (Tables 6 and 7).
The SNPs analyzed were RS6269, RS4633, RS4680, and RS4818. The treatment effects across all 4 SNPs in the minor allele indicated a dose-response relationship. The magnitude of the effect for the Compound A 25 mg treatment group was as low as +1.8 points on the MCCB composite score for SNP4680 (corresponding to a Coen's d effect size of 0.43) to as high as +3.7 points for SNP RS4818 (corresponding to a Coen's d effect size of 0.93). […] In fact, the treatment response for both Compound A active treatment groups was generally less than that of placebo for subjects containing the major COMT allele.

[4] = system: clinically stable subjects with schizophrenia; experiment: CANTAB cognition battery, Clinical Study A; details: 10 mg and 25 mg dose groups
Text: as §3
The Cambridge Neuropsychological Test Automated Battery (CANTAB) is a computer-based cognitive assessment system consisting of a battery of neuropsychological tests, administered to subjects using a touch screen computer. […] The CANTAB computerized system will be employed to explore the effects of Compound A on cognition. The tests assess the following cognitive domains: executive function, spatial memory, attention and episodic memory. The CANTAB battery took approximately 40 minutes to administer and was given on Days 14, 28, 56, 84 and 98.

[5] = RS4633 T/T or C/T (minor allele), 25 mg vs placebo
[6] = RS4818 G/C or G/G (minor allele), 10 mg vs placebo
[7] = RS6269 G/G or A/G (minor allele), 10 mg vs placebo
[8] = RS6269 G/G or A/G (minor allele), 25 mg vs placebo

Which “UPSA-2 medication management subscale score” value ([1]; 10 mg, P=0.094) does the source give for `c1ccc(-c2nnc(O[C@@H]3C4CC5C[C@H]3C[N@](C5)C4)s2)cc1` [Compound A, (4s)-4-(5-phenyl-1,3,4-thiadiazol-2-yloxy)-1-azatricyclo[3.3.1.1^3,7]decane] here?
The value was “statistically significant improvement or statistical trend for improvement”.

And the “UPSA-2 household skills subscale score” value ([1]; 10 mg, P=0.096)?
Its value is “statistically significant improvement or statistical trend for improvement”.

And the “UPSA-2 comprehension/planning subscale score” value ([1]; 10 mg, P=0.102)?
Its value is “statistically significant improvement or statistical trend for improvement”.

What about the “UPSA-2 comprehension/planning subscale score” value ([1]; 25 mg, P=0.005) of the same compound?
Its value is “statistically significant improvement or statistical trend for improvement”.

What about the “UPSA-2 composite score, significance versus placebo” value ([1]; either dose group (10 mg, 25 mg)) of the same compound?
The value was “No significance”.

What about the “Discontinuation: Adverse event” value ([2]; 10 mg QD) of the same compound?
Its value is 4 (5.8) n (%).

And the “Discontinuation: Adverse event” value ([2]; 25 mg QD)?
The value was 3 (4.5) n (%).

And the “Discontinuation: Adverse event” value ([2]; Compound A overall)?
The value was 7 (5.1) n (%).

What about the tolerability ([2]; subjects with schizophrenia, doses up to 25 mg QD, including 10 mg QD and 25 mg QD) of the same compound?
Its tolerability is “well tolerated”.

And the “treatment effect on MCCB composite score” value ([3]; current smokers who contained the major allele for the 4 COMT SNPs)?
The value was “No treatment effect”.

And the “MCCB Change from Baseline to Final Mean(SD)” value ([3]; RS4633 C/C (major allele), 25 mg)?
The value was 0.4(3.9).

And the “MCCB Between-group Difference (Pooled SD)” value ([3]; RS4633 C/C (major allele), 25 mg vs placebo)?
The value was −1.1(5.0).

And the “MCCB Change from Baseline to Final Mean(SD)” value ([3]; RS4633 T/T or C/T (minor allele), 10 mg)?
The value was −0.3(4.4).

What about the “MCCB Between-group Difference (Pooled SD)” value ([3]; RS4633 T/T or C/T (minor allele), 10 mg vs placebo) of the same compound?
The value was −1.2(4.2).

What about the “MCCB Change from Baseline to Final Mean(SD)” value ([3]; RS4633 T/T or C/T (minor allele), 25 mg) of the same compound?
Its value is 2.9(4.8).

And the “MCCB Between-group Difference (Pooled SD)” value [3, 5]?
The value was 2.0(4.5).

What about the “MCCB Effect Size (Raw mean)” value [3, 5] of the same compound?
Its value is 0.44.

And the “MCCB Change from Baseline to Final Mean(SD)” value ([3]; RS4680 A/A or G/A (minor allele), 10 mg)?
Its value is 0.1(4.6).

And the “MCCB Between-group Difference (Pooled SD)” value ([3]; RS4680 A/A or G/A (minor allele), 10 mg vs placebo)?
Its value is −1.0(4.1).

What about the “MCCB Change from Baseline to Final Mean(SD)” value ([3]; RS4680 A/A or G/A (minor allele), 25 mg) of the same compound?
Its value is 2.9(4.8).

What about the “MCCB Effect Size (Raw mean)” value ([3]; RS4680 A/A or G/A (minor allele), 25 mg vs placebo) of the same compound?
The value was 0.43.

What about the “MCCB Change from Baseline to Final Mean(SD)” value ([3]; RS4680 G/G (major allele), 25 mg) of the same compound?
The value was 0.4(3.9).

And the “MCCB Between-group Difference (Pooled SD)” value ([3]; RS4680 G/G (major allele), 25 mg vs placebo)?
The value was −0.9(5.3).

What about the “MCCB Change from Baseline to Final Mean(SD)” value ([3]; RS4818 C/C (major allele), 25 mg) of the same compound?
Its value is 1.2(4.6).

And the “MCCB Between-group Difference (Pooled SD)” value ([3]; RS4818 C/C (major allele), 25 mg vs placebo)?
Its value is −1.0(4.9).

And the “MCCB Change from Baseline to Final Mean(SD)” value ([3]; RS4818 G/C or G/G (minor allele), 10 mg)?
Its value is 1.7(3.7).

What about the “MCCB Between-group Difference (Pooled SD)” value [3, 6] of the same compound?
The value was 2.1(3.6).

What about the “MCCB Effect Size (Raw mean)” value [3, 6] of the same compound?
Its value is 0.58.

And the “MCCB Change from Baseline to Final Mean(SD)” value ([3]; RS4818 G/C or G/G (minor allele), 25 mg)?
Its value is 3.4(4.4).

What about the “MCCB Effect Size (Raw mean)” value ([3]; RS4818 G/C or G/G (minor allele), 25 mg vs placebo) of the same compound?
Its value is 0.93.

And the “MCCB Change from Baseline to Final Mean(SD)” value ([3]; RS6269 A/A (major allele), 25 mg)?
The value was 0.8(4.6).

And the “MCCB Between-group Difference (Pooled SD)” value ([3]; RS6269 A/A (major allele), 25 mg vs placebo)?
Its value is −1.0(3.9).

And the “MCCB Change from Baseline to Final Mean(SD)” value ([3]; RS6269 G/G or A/G (minor allele), 10 mg)?
Its value is 2.9(4.2).

What about the “MCCB Between-group Difference (Pooled SD)” value [3, 7] of the same compound?
The value was 1.8(5.0).

And the “MCCB Effect Size (Raw mean)” value [3, 7]?
Its value is 0.36.

What about the “MCCB Change from Baseline to Final Mean(SD)” value ([3]; RS6269 G/G or A/G (minor allele), 25 mg) of the same compound?
Its value is 3.1(4.4).

What about the “MCCB Between-group Difference (Pooled SD)” value [3, 8] of the same compound?
Its value is 2.0(5.1).

What about the “MCCB Effect Size (Raw mean)” value [3, 8] of the same compound?
The value was 0.40.

And the “results on the CANTAB battery relative to MCCB results” value [4]?
Its value is “consistent”.
